PubChem BioAssay AID2305 (GlaxoSmithKline (GSK), 2010)
Where “and” joins values, the source holds several entries; their conditions need not be identical. Equal values may be shown once.

These molecules were tested on P. falciparum 3D7 growth, pLDH absorbance (assay: P. falciparum 3D7 growth inhibition, dose response, strain 3D7 (AID 2305)).
`CNCCNCc1cccc(-c2ccc(-c3nc4ccccc4[nH]3)s2)c1` showed an IC50 of 830 nM. With `CC(=O)Nc1ncc(C(=O)Nc2cccc(-c3ccc(-c4nc5c(C)cccc5[nH]4)cc3)c2)s1` the IC50 was 640 nM. In the case of `COc1ccc(N2CCN(CCCOc3ccc(NC(=O)c4cc(Cl)cc(Cl)c4)cc3)CC2)c(OC)c1`, the IC50 is reported as 900 nM. `Cc1cc(N[C@@H](Cc2ccccc2)C(=O)NC2CCCC2)nc(NCCc2ccc(F)cc2)n1` showed an IC50 of 800 nM. `COC(=O)c1ccc2nc(-c3ccc(C(=O)NCc4ccc(Cl)c(Cl)c4)cc3)[nH]c2c1` was tested, and the IC50 was 850 nM. For `COc1cc(Cl)c(C)cc1-n1cc(C(=O)c2cc(Br)ccc2O)cc(C#N)c1=O`, the IC50 was 870 nM. `CC(C)C(C(=O)n1cc2c(ccc3nc(N)nc(N)c32)n1)C(C)C` was tested, and the IC50 was 790 nM. In the case of `Cc1nc(C)c(CC(=O)Nc2ccc(-c3ccc(-c4nc5ccc(C(F)(F)F)cc5[nH]4)s3)cc2)s1`, the IC50 is reported as 1030 nM. Molecule `O=C(NC1CCN(CCC[C@]2(c3ccc(Cl)c(Cl)c3)CCCN(C(=O)c3ccccc3)C2)CC1)c1ccc(F)cc1` has an IC50 of 880 nM. `c1ccc(-c2[nH]c3ccccc3c2CN2CCC(N3CCCCC3)CC2)nc1` showed an IC50 of 1210 nM. Molecule `CC1(C)CCNc2cc(NC(=O)c3ccc(-c4ncccc4C(F)(F)F)cc3)ccc21` has an IC50 of 900 nM. `CCCCc1ccc(-c2ccc3[nH]c(C)c(Br)c(=O)c3c2)cc1` gave an IC50 of 110 nM. Work on `CCc1ccccc1N=C1c2c(cccc2[N+](=O)[O-])C(=O)C1C(C)=O` (configuration not stated) yielded an IC50 of 90 nM. Work on `Cc1[nH]c(C)c(-c2ccc(C#Cc3ccc(F)cc3F)cc2)c(=O)c1Br` yielded an IC50 of 30 nM. In the case of `Cc1cccc2[nH]c(-c3cccc(-c4ccc(C(=O)NCc5ccccc5S(C)(=O)=O)cc4)c3)nc12`, the IC50 is reported as 750 nM. `COc1cc(C(=O)N2CCOC(CCN3CCC(c4ccc(Cl)cc4)CC3)(c3ccc(Cl)c(Cl)c3)C2)cc(OC)c1OC` (configuration not stated) showed an IC50 of 180 nM. Molecule `Cc1cccc2[nH]c(-c3ccc(-c4cccc(NC(=O)Nc5ccc6c(c5)OCO6)c4)cc3)nc12` has an IC50 of 740 nM. With `O=C(Nc1ccc2c(c1)CCN2C1CCN(Cc2ccc(O)cc2)C1)c1ccco1` (configuration not stated) the IC50 was 900 nM. Work on `O=C(Nc1ccc2c(c1)CCN(C1CCC1)CC2)c1ccc(-c2cn3ccccc3n2)cc1` yielded an IC50 of 880 nM. For `Cc1ccc(Cc2cccc3nc(N)nc(N)c23)cc1`, the IC50 was 1150 nM. `CS(=O)(=O)c1cccc2sc(N3CCN(C(=O)c4ccc([N+](=O)[O-])o4)CC3)nc12` was tested, and the IC50 was 1240 nM. With `COc1ccc2c(-c3ccccc3)noc2c1` the IC50 was 240 nM. `Nc1nc(N)c2c(ccc3c2ccn3Cc2ccccn2)n1` gave an IC50 of 10 nM. With `Cc1ccc(CNC(=O)c2cc3c(=O)n4ccccc4nc3n(CCCN3CCOCC3)c2=N)cc1` the IC50 was 1090 nM. For `CC(=O)Nc1ccc(CN2CCCN(c3cc(NC(=O)c4cccc(C)c4)ccn3)CC2)cc1`, the IC50 was 860 nM. For `CC[C@H]1CN2CCc3c([nH]c4ccccc34)[C@@H]2C[C@@H]1CC1c2cc(OC)c(OC)cc2CCN1C` (some centres not stated), the IC50 was 1090 nM. `COc1cc(Nc2nccc(N3CCC(NC(=O)Nc4ccc5c(c4)OCO5)C3)n2)cc(OC)c1OC` (configuration not stated) was tested, and the IC50 was 760 nM. `CC(C)C[C@H](Nc1ccnc(NCC2CCCCC2)n1)C(=O)NCCOc1ccccc1` was tested, and the IC50 was 1020 nM. Molecule `CC(C)N1CCC(N(Cc2ccc(-c3ccc(Cl)cc3)cc2)C(=O)Cn2c(CCc3cccc(F)c3F)nc(=O)c3ccccc32)CC1` has an IC50 of 940 nM. Molecule `COc1cc2nc(N3CCC(CNC(=O)c4ccc(-c5ccc(C(=O)N(C)C)cc5OCCO)cc4)CC3)nc(N)c2cc1OC` has an IC50 of 640 nM. `COc1ccc(OC)c(-c2ccc(=O)n(CC(=O)Nc3cccc4ccccc34)n2)c1` showed an IC50 of 900 nM. Molecule `O=C(/C=C/c1ccc(Cl)c(Cl)c1)NCCCCCN1C2CCC1CC(c1c[nH]c3ccccc13)C2` (configuration not stated) has an IC50 of 840 nM. For `O=C(NCc1cccnc1)C(c1cc2ccccc2o1)N1CCN(C(c2ccccc2)c2ccccc2)CC1` (configuration not stated), the IC50 was 710 nM. `CC(C)=CCc1c(-c2ccc(O)cc2O)oc2c3c(cc(O)c2c1=O)OC(C)(C)C=C3` was tested, and the IC50 was 980 nM. Work on `O=C(Nc1ccc(-c2nc3ccccc3[nH]2)cc1)C1CCN(Cc2ccc(F)cc2)CC1` yielded an IC50 of 840 nM. `O=C1CCCN1CCCNCc1ccc(-c2ccc(-c3nc4ccc(F)cc4[nH]3)cc2)cc1` gave an IC50 of 600 nM. Molecule `Cc1c(Cl)cccc1NC(=S)NN=Cc1ccccn1` has an IC50 of 600 nM. For `CN(C)c1ccc(C=CC(=O)NC(=O)c2ccccc2O)cc1`, the IC50 was 230 nM. Molecule `CCCCC1(c2ccc(F)cc2)NC(=O)N(CC(=O)c2cc(C)n(Cc3ccco3)c2C)C1=O` (configuration not stated) has an IC50 of 980 nM. For `O=C(/C=C/c1ccc(Cl)c(Cl)c1)NCCCCCN1CCC(NC(=O)Nc2cc(Cl)ccc2Cl)CC1`, the IC50 was 430 nM. With `CN(C)c1ccc(-c2csc(C(=O)NC3CCN(CCC(C)(C)C)C3)c2)cc1` (configuration not stated) the IC50 was 970 nM. Molecule `Cc1c[nH]c2cc(/C=C/C(=O)NC3CCC(CCN4CCc5ccc(C#N)cc5CC4)CC3)ccc12` (configuration not stated) has an IC50 of 800 nM. In the case of `CCOc1cc(C(=O)N[C@@H](Cc2ccccc2)[C@H](O)CNCc2cc(OC)cc(OC)c2)cc(N2CCCCS2(=O)=O)c1`, the IC50 is reported as 520 nM. In the case of `CCCn1c(Sc2ccc(C#N)c([N+](=O)[O-])c2)nnc1-c1ccc(N(C)C)cc1`, the IC50 is reported as 130 nM. Molecule `CS(=O)(=O)N1CC2(CCN(CCC(NC(=O)Nc3ccccc3)c3ccc(Cl)c(Cl)c3)CC2)c2ccccc21` (configuration not stated) has an IC50 of 820 nM. With `NC1=NC(c2ccccc2)(c2ccccc2)C(=O)N1CCCCc1ccccn1` the IC50 was 1260 nM. `COc1ccc(CCN2CCC(Nc3nc4ccccc4n3CCc3ccc(OC)cc3)CC2)cc1` gave an IC50 of 660 nM. With `Fc1ccc(COc2ccc(Nc3ncnc4ccc(I)cc34)cc2Cl)cc1` the IC50 was 1180 nM. `Cc1cc(N[C@@H](CC(C)C)C(=O)NCCc2ccccc2)nc(NCC2CCCCC2)n1` was tested, and the IC50 was 900 nM. For `CC(C)CCN1CCCN(Cc2ccc(C(=O)NCc3ccc(Cl)cc3)cc2)CC1`, the IC50 was 1010 nM. `O=C(Nc1cccc(C(F)(F)F)c1)c1cccc(S(=O)(=O)NCC2CCCN(CC3CCCCC3)C2)c1` (configuration not stated) gave an IC50 of 880 nM. `CCc1c(CCNCCCCCCNCCc2ccc(Br)cc2)ccc(O)c1O` gave an IC50 of 900 nM. Molecule `Cc1ccc(Nc2nc(C)cc(NC3CC3)n2)cc1` has an IC50 of 1220 nM. Work on `CC(=O)Nc1ncc(C(=O)Nc2cccc(-c3cccc(-c4nc5c(C)cccc5[nH]4)c3)c2)s1` yielded an IC50 of 350 nM. For `COC(=O)C(Cc1ccccc1)NC(=O)NC1CCN(c2ccnc(Nc3ccc(F)cc3)n2)C1` (configuration not stated), the IC50 was 1090 nM. Work on `Cc1[nH]c(/C=C2\C(=O)Nc3ccc(S(=O)(=O)Cc4c(Cl)cccc4Cl)cc32)c(C)c1C(=O)N1CCC[C@@H]1CN1CCCC1` yielded an IC50 of 720 nM. `Cc1cc(NCCc2ccc(O)cc2)nc(NCC(c2ccccc2)c2ccccc2)n1` showed an IC50 of 320 nM. Molecule `COc1cc(Cc2c(C)nc3nc(N)nc(N)c3c2C)c(Br)c(OC)c1OC` has an IC50 of 400 nM. `Cc1cc(N[C@@H](Cc2ccccc2)C(=O)NCc2cccs2)nc(NCCOc2ccccc2)n1` was tested, and the IC50 was 1480 nM. `Cc1ccc(Nc2ccnc3ccc(C(F)(F)F)cc23)cc1O` gave an IC50 of 960 nM. With `CCN(c1cc(C)nc(Nc2ccc(Cl)cc2)n1)[C@H]1CCN(Cc2ccccc2)C1` the IC50 was 860 nM. Molecule `Cc1ccc(NC(=O)c2ccc(CN3CCCN(CC4CCCCC4)CC3)cc2)cc1C` has an IC50 of 1020 nM. With `Oc1ccc(-c2ccccc2)cc1CN1CCCCCC1` the IC50 was 1170 nM. Molecule `O=C(Nc1ccc(C(=O)Nc2cccc(C3=NCCN3)c2)cc1)Nc1ccc(C2=NCCN2)cc1` has an IC50 of 100 nM. Molecule `N#Cc1cccc(C(=O)Nc2ccc(-c3cccc(CN4CCC(O)CC4)c3)cc2)c1` has an IC50 of 1000 nM. For `Cc1noc(C)c1-c1cccc(CNCc2cccc(-c3csc(-c4nc5ccccc5[nH]4)c3)c2)c1`, the IC50 was 260 nM. Work on `Cc1[nH]c2ccccc2c1C1=CCN(CCN2CCCc3c(Br)cccc3C2=O)CC1` yielded an IC50 of 660 nM. `CCOC(C(=O)OCC1CCCN1C)(c1ccccc1)c1ccccc1` (configuration not stated) was tested, and the IC50 was 860 nM. Work on `CCCCCCC(C)(C)c1cc(O)c2c(c1)OC(C)(C)c1ccncc1-2` yielded an IC50 of 180 nM. `Cc1ccc(NC(=O)NC2CCN(c3ccnc4ccccc34)CC2)cc1` was tested, and the IC50 was 790 nM. `c1ccc2c(CNc3nc(NCC4CCCCC4)nc4nc[nH]c34)cccc2c1` showed an IC50 of 890 nM. `Cc1cc(NC(=O)Nc2ccc3nccc(N4CCN(C)CC4)c3c2)ccc1Br` showed an IC50 of 90 nM. With `CC(=O)c1ccc(NC(=O)Nc2ccc(N(C)c3ccnc(Nc4cccc(CS(C)(=O)=O)c4)n3)cc2)cc1` the IC50 was 120 nM. `Cc1cc(N[C@@H](Cc2ccccc2)C(=O)NC2CCCC2)nc(NCCCOC(C)C)n1` showed an IC50 of 1480 nM. Molecule `CCCCCN=C(N)N/N=C/c1c[nH]c2ccc(OC)cc12` has an IC50 of 960 nM. For `COC(=O)c1sccc1NC(=S)NC1CCC(CN2CCC(c3c[nH]c4ccccc34)CC2)CC1` (configuration not stated), the IC50 was 920 nM and 570 nM. For `CC(=O)Nc1ccc(C(=O)NC2CCN(c3ccnc4cc(Cl)ccc34)C2)cc1` (configuration not stated), the IC50 was 810 nM. Molecule `CC(C)C1=C[C@H]2C[C@]3(C4OCCO4)[C@@H]4CC[C@@H](C)[C@H]4C[C@@]2(C(=O)OCC2COCO2)[C@]13C(=O)OC(c1ccccc1)c1ccccc1` (some centres not stated) has an IC50 of 850 nM. In the case of `COc1cc(C2=NN(S(=O)(=O)c3c(C)cc(C)cc3C)CCCC2)ccc1Cl`, the IC50 is reported as 780 nM. Molecule `COc1cc(Cc2cnc3nc(N)nc(N)c3c2C)cc(OC)c1OC` has an IC50 of 60 nM. Work on `Cc1ccc(/C=C/C(=O)NC2CCC(N3CCC(c4ccccc4C)CC3)CC2)cc1C` (configuration not stated) yielded an IC50 of 810 nM. With `CN(C)CCCc1cc2c(cc1Cl)CCN2C(=O)Nc1ccc(-c2ccncc2)c2ccccc12` the IC50 was 1180 nM. Molecule `CC(=O)Nc1ccc(CN2CCC(NC(=O)c3ccc(-c4cccc(C(F)(F)F)c4)s3)CC2)cc1` has an IC50 of 890 nM. Work on `CCCCCCNC(=O)C1Cc2c([nH]c3ccc(Br)cc23)C2(CCN(Cc3ccccc3)CC2)N1` (configuration not stated) yielded an IC50 of 720 nM. With `CCCCC1(NC(=O)[C@H](CC(C)C)Nc2ccc(C#N)c3ccccc23)CCCCC1` the IC50 was 800 nM. With `COc1ccc(CN(C)CCCOc2ccc(NC(=O)c3cccc4c(=O)c5cccc(C)c5[nH]c34)cc2)cc1OC` the IC50 was 890 nM. For `O=S(=O)(c1ccccc1)C1CC1`, the IC50 was 720 nM. Work on `Cc1cccc2[nH]c(-c3ccc(-c4cccc(NC(=O)C(C)CN5CCN(C)CC5)c4)s3)nc12` (configuration not stated) yielded an IC50 of 750 nM. For `O=C(C=Cc1ccc(Br)cc1)N1CCC(CCN2CCC(c3c[nH]c4ccccc34)CC2)CC1`, the IC50 was 920 nM. `CCCNC(=O)C1Cc2c([nH]c3ccc(Br)cc23)C2(CCN(CCc3ccccc3)CC2)N1` (configuration not stated) showed an IC50 of 680 nM. `CCN1[C@@H](c2ccc(Cl)cc2)[C@@H](CNCc2ccccc2O)C[C@@]1(C)CO` gave an IC50 of 310 nM. `CN1CCN(c2cc3c(cc2Cl)CCN3C(=O)Cc2ccc(Cl)c(NC(=O)Nc3cccc(C#N)c3)c2)CC1` gave an IC50 of 640 nM. `CC(CN(C)C)C(=O)Nc1cccc(-c2cccc(-c3nc4ccc(F)cc4[nH]3)c2)c1` (configuration not stated) gave an IC50 of 830 nM. `O=C(Nc1ccc(OC2CCN(Cc3ccsc3)CC2)c(Cl)c1)c1ccc(F)cc1` showed an IC50 of 650 nM. Molecule `Nc1ccc2c(N)c3ccccc3nc2c1` has an IC50 of 810 nM. With `CCC[C@@H]([C@@H](CC1CCCCC1)C(=O)N[C@@H](CCOC(=O)NCC)C(=O)Nc1nccs1)N(O)C=O` the IC50 was 80 nM. Work on `COc1ccc(CCN(C)CCCN2CCC(NC(=O)c3cccc4c(=O)c5ccccc5sc34)CC2)cc1OC` yielded an IC50 of 790 nM.
